In patent US8946201B2, “Methods for inhibiting TGF-β” (Saint Louis University, priority 2007, dated 2015):

What was measured:
[1] = tested on: TβR-I and TβR-II; experiment: Western blot of TβR-I and TβR-II protein levels, Mv1Lu cells; assay type: cell-based, mink; conditions: 50 μg/ml
Procedure: Cells grown to near confluence on 12-well cluster dishes were treated with cholesterol or LDL in serum-free DMEM (vol.=0.5 ml/well) at 37° C. for 1 hr. The treated cells were further incubated with 50 or 100 pM TGF-β1 at 37° C. for 30 min (for determining Smad2 phosphorylation) or for 2 hr (for determining TβR-II). Treated cells were lysed and cell lysates were analyzed by 7.5% SDS-PAGE and Western blot analysis using anti-Smad2, anti-P-Smad2, anti-caveolin-1, anti-TβR-I (alk5) or anti-TβR-II antibodies as described previously (30). The antigens on the blots were visualized by using horseradish peroxidase-conjugated anti-rabbit IgG antibody and the ECL system as described (30).
To determine if cholesterol suppresses TGF-β responsiveness by decreasing the ratio of TGF-β1 binding to TβR-II and TβR-I, we first determined the time course of the effect of cholesterol treatment on the ratio of ^125I-TGF-β1 binding to TβR-II and TβR-I in Mv1Lu cells. These cells were treated with 50 μg/ml cholesterol at 37° C. for several time periods. ^125I-TGF-β1 binding to TGF-β receptors was then determined by affinity labeling using the bifunctional cross-linking agent DSS (disuccinimidyl suberate) followed by 7.5% SDS-PAGE and autoradiography or quantified with a PhosphoImager. […] We then performed analysis of the effect of cholesterol treatment on TGF-β1 binding to TβR-I and TβR-II in several cell types. Mv1Lu, BAEC, and NRK cells were treated for 1 hr with increasing concentrations of cholesterol in the presence and absence of 0.2% β-cyclodextrin (β-CD, which forms water-soluble complexes with cholesterol) at 37° C. The binding of TGF-β1 to TβR-I and TβR-II in these cells was then determined by ^125I-TGF-β1 affinity labeling at 0° C.

[2] = tested on: Smad2 phosphorylation stimulated by TGF-β1; experiment: TGF-β1-stimulated Smad2 phosphorylation, Western blot, Mv1Lu cells; assay type: cell-based, mink
Procedure: (§1) Cells were treated with increasing concentrations of cholesterol, as indicated (A, B, C), 50 μg protein/ml LDL (D), 5 μg protein/ml VLDL (D) or 50 μg/ml cholesterol (E) at 37° C. for 1 hr and then further incubated with 50 pM TGF-β1 for 30 min. Phosphorylated Smad2 (P-Smad2) and total Smad2 in the cell lysates were analyzed by 7.5% SDS-PAGE and followed by immunoblot analysis using anti-P-Smad2 and anti-Smad2 antibodies. A representative of a total of 3 analyses is shown (top). The quantitative analysis of the immunoblots is shown (bottom). […] Smad2 nuclear translocation was analyzed by indirect immunofluorescent staining using P-Smad2 antibody and rhodamine-labeled 2nd antibody (E). Rhodamine fluorescence represents P-Smad2 staining (a,b,c) whereas the nuclei were stained by DAPI staining (d,e,f).
(§2) Cells grown to near confluence on 12-well cluster dishes were treated with cholesterol or LDL in serum-free DMEM (vol.=0.5 ml/well) at 37° C. for 1 hr. […] Treated cells were lysed and cell lysates were analyzed by 7.5% SDS-PAGE and Western blot analysis using anti-Smad2, anti-P-Smad2, anti-caveolin-1, anti-TβR-I (alk5) or anti-TβR-II antibodies as described previously (30). […]
(§3) It has been reported that TGF-β responsiveness is determined by TGF-β partitioning between lipid raft/caveolae-mediated and clathrin-mediated endocytosis. […]

[3] = tested on: Smad2 phosphorylation stimulated by TGF-β1; experiment: TGF-β1-stimulated Smad2 phosphorylation, Western blot, NRK cells; assay type: cell-based, rat; conditions: 25 μg/ml, 37° C. 1 hr, then 50 pM TGF-β1 0.5 hr
Procedure: as §1, §2, §3

CC(C)CCC[C@@H](C)[C@H]1CC[C@H]2[C@@H]3CC=C4C[C@@H](O)CC[C@]4(C)[C@H]3CC[C@]12C [cholesterol]
effect on the protein levels of TβR-I and TβR-II ([1]; data not shown): did not affect | effect on the total amount of TβR-II protein ([1]; cholesterol alone): did not affect | suppression of Smad2 phosphorylation stimulated by TGF-β1 ([2]; 25 μg/ml, 37° C. 1 hr, then 50 pM TGF-β1 0.5 hr, Mv1Lu cells): 55% | effect on Smad2 phosphorylation ([2]; at concentrations of 6 or 10 μg/ml, Mv1Lu, BAEC, NRK cells (FIG. 1)): appreciably suppressed | suppression of Smad2 phosphorylation stimulated by TGF-β1 [3]: 40%
